Measured values from patent US5447720A, “Composition and method for treatment of hemoglobinopathies” (Fadulu; Sunday O., priority 1993, dated 1995).

Key:
[1] = test system: sickling; details: words; cited from earlier work
[2] = test system: HbF; details: sickle cell patients; words; cited from earlier work
[3] = test system: sickling; test: Anti-sickling activity of acid components (test not specified); details: words

O=C(O)c1ccccc1CO [2-hydroxymethylbenzoic acid]
in vitro anti-sickling effect (literature) [1]: in vitro nonsickling characteristics

Nc1ncn([C@@H]2O[C@H](CO)[C@@H](O)[C@H]2O)c(=O)n1 [5-azacytidine]
effect on HbF levels (literature) [2]: increased HbF levels

CCCCC/C=C\C/C=C\CCCCCCCC(=O)O [linoleic]
anti-sickling activity of less polar acids [3]: little if any anti-sickling activity

CC/C=C\C/C=C\C/C=C\CCCCCCCC(=O)O [linolenic]
anti-sickling activity of less polar acids [3]: little if any anti-sickling activity

CCCCCCCC/C=C\CCCCCCCC(=O)O [oleic acids]
anti-sickling activity of less polar acids [3]: little if any anti-sickling activity

CCCCCCCCCCCCCCCCCC(=O)O [stearic]
anti-sickling activity of less polar acids [3]: little if any anti-sickling activity

arginine butyrate
effect on HbF levels (literature) [2]: rapid stimulation of the HbF
